These results are taken from ChEMBL document CHEMBL1153372, “A selective matrix metalloprotease 12 inhibitor for potential treatment of chronic obstructive pulmonary disease (COPD): discovery of (S)-2-(8-(methoxycarbonylamino)dibenzo[b,d]furan-3-sulfonamido)-3-methylbutanoic acid (MMP408)” (J Med Chem, 2009).

Structures are written as SMILES. Bounds are passed on as bounds.

In general, half-life refers to the time needed for the level to fall by half in the phase considered. High values mean slow loss, low ones fast loss. A word on the clearance: it is the rate of elimination divided by the concentration. High values mean efficient removal, low ones inefficient removal. In general, IC50 refers to the concentration that gives 50% inhibition. For orientation: Cmax means the highest concentration seen after dosing. The term AUC denotes the area under the concentration-time curve, a measure of exposure. Low values mean low exposure, high ones high exposure. What is called bioavailability is the share of a dose that reaches the circulation, judged against a reference dose that is usually intravenous.

The nature of data set [1]: Half life in C57BL/6 mouse at 30 mg/kg, po. In kind it is ADME, organism-based. The arrangement: dose 30 mg/kg, route oral. The following applies: in vivo.
The nature of data set [2]: Clearance in C57BL/6 mouse at 2 mg/kg, iv. The following applies: in vivo. In kind it is ADME, organism-based. The arrangement: dose 2 mg/kg, route intravenous.
Data set [3] has as its target Collagenase 3 (Homo sapiens, UniProt P45452). Briefly: Inhibition of human recombinant MMP13 expressed in Escherichia coli.
Data set [4] in a line: Volume of distribution at steady state in C57BL/6 mouse at 2 mg/kg, iv. In kind it is ADME, organism-based. Further details: dose 2 mg/kg, route intravenous. The following applies: in vivo, read-out: Vdss.
Data set [5] can be described thus: Cmax in C57BL/6 mouse at 30 mg/kg, po. The following applies: in vivo. The arrangement: dose 30 mg/kg, route oral. The class given is ADME, organism-based.
A short description of data set [6]: AUC in C57BL/6 mouse at 30 mg/kg, po. In kind it is ADME, organism-based. The arrangement: dose 30 mg/kg, route oral. To be noted: plasma.
Data set [7] in a line: Oral bioavailability in C57BL/6 mouse at 30 mg/kg. In kind it is ADME, organism-based. To be noted: in vivo.

In data set [1], `COC(=O)Nc1ccc2c(c1)oc1ccc(S(=O)(=O)N[C@@H](C(=O)O)C(C)C)cc12` had a half-life of 2.7 h. Further, in data set [2], the clearance was determined as 8.3 mL/min/kg. Also, in data set [3], the half-maximal inhibitory concentration (IC50) is 0.5 µM. Also, the Vd in data set [4] was 1.6 L/kg. For the same compound, in data set [5], the peak level (Cmax) was 10600 ng/mL. Further, in data set [6], the AUC worked out at 21700 ng·h/mL. This compound had a bioavailability in data set [7] of 36%.
`CC(C)[C@H](NS(=O)(=O)c1ccc2c(c1)oc1cc(NC(=O)OCCF)ccc12)C(=O)O`: the IC50 in data set [3] came to 0.097 µM.
With `CC(C)[C@H](NS(=O)(=O)c1ccc2c(c1)oc1ccc(NC(=O)Nc3ccsc3)cc12)C(=O)O`, the IC50 in data set [3] was found to be 0.0033 µM.
With `CC(C)[C@H](NS(=O)(=O)c1ccc2c(c1)oc1ccc(NC(=O)Oc3ccccc3)cc12)C(=O)O`, in data set [3], the IC50 is 0.22 µM.
With `CC(C)[C@H](NS(=O)(=O)c1ccc2c(c1)oc1ccc(NC(N)=O)cc12)C(=O)O`, the 50% inhibitory concentration (IC50) in data set [3] was 0.059 µM.
Turning to `CCCOC(=O)Nc1ccc2oc3cc(S(=O)(=O)N[C@H](C(=O)O)C(C)C)ccc3c2c1`, the IC50 in data set [3] came to 0.01 µM.
Regarding `CC(C)[C@H](NS(=O)(=O)c1ccc2c(c1)oc1ccc(NC(=O)Oc3ccc(F)cc3)cc12)C(=O)O`, in data set [3], the concentration for half-maximal inhibition (IC50) came to 0.2 µM.
With `CC(C)[C@H](NS(=O)(=O)c1ccc2c(c1)oc1ccc(NS(C)(=O)=O)cc12)C(=O)O`, the half-inhibitory concentration (IC50) in data set [3] is 0.093 µM.
Same read-out and setting: to `CC(C)[C@H](NS(=O)(=O)c1ccc2c(c1)oc1ccc(NC(=O)Oc3ccccc3Cl)cc12)C(=O)O` belongs 0.18 µM.
As to `CCOC(=O)Nc1ccc2oc3cc(S(=O)(=O)N[C@H](C(=O)O)C(C)C)ccc3c2c1`, in data set [1], the half-life was 3.4 h. Besides, the clearance in data set [2] is 19 mL/min/kg. For the same compound, the IC50 in data set [3] stood at 0.1 µM. Further, in data set [4], the Vd came to 1.6 L/kg. Also, the Cmax in data set [5] stood at 7790 ng/mL. This compound came in with an AUC in data set [6] of 10800 ng·h/mL. The bioavailability in data set [7] turned out to be 42%.
`CC(C)[C@H](NS(=O)(=O)c1ccc2c(c1)oc1ccc(NC(=O)NC3CCCC3)cc12)C(=O)O`: the IC50 in data set [3] was determined as 0.0021 µM.
With `COC(=O)Nc1cc2oc3ccc(S(=O)(=O)N[C@H](C(=O)O)C(C)C)cc3c2cc1Br`, in data set [3], the concentration for half-maximal inhibition (IC50) is greater than 25 µM.
As to `CC(C)OC(=O)Nc1ccc2c(c1)oc1ccc(S(=O)(=O)N[C@@H](C(=O)O)C(C)C)cc12`, the IC50 in data set [3] was 0.5 µM.
For the compound `CC(C)[C@@H](NS(=O)(=O)c1ccc2oc3cc(NS(=O)(=O)c4ccccc4)ccc3c2c1)C(=O)O`, the IC50 in data set [3] was determined as 6 µM.
On the same count and under the same terms, to `CCCOC(=O)Nc1ccc2c(c1)oc1ccc(S(=O)(=O)N[C@@H](C(=O)O)C(C)C)cc12` belongs 0.109 µM; to `CC(C)[C@@H](NS(=O)(=O)c1ccc2oc3cc(NS(=O)(=O)C(C)C)ccc3c2c1)C(=O)O`, 0.12 µM; to `COC(=O)Nc1cc2oc3ccc(S(=O)(=O)N[C@@H](C(=O)O)C(C)C)cc3c2cc1Br`, 25.4 µM.
Take `Cc1noc(C)c1S(=O)(=O)Nc1ccc2c(c1)oc1ccc(S(=O)(=O)N[C@@H](C(=O)O)C(C)C)cc12`: the half-inhibitory concentration (IC50) in data set [3] was found to be 34 µM.
For `COC(=O)Nc1ccc2c(c1)oc1cc(S(=O)(=O)N[C@H](C(=O)O)C(C)C)ccc12`, the half-maximal inhibitory concentration (IC50) in data set [3] was greater than 1 µM.
Still for that read-out and setting: to `CC(C)[C@H](NS(=O)(=O)c1ccc2c(c1)oc1ccc(NS(=O)(=O)CC(F)(F)F)cc12)C(=O)O` belongs 0.67 µM; to `CC(C)[C@H](NS(=O)(=O)c1ccc2oc3ccccc3c2c1)C(=O)O`, 25 µM; to `CC(C)[C@H](NS(=O)(=O)c1ccc2c(c1)oc1ccc(NC(=O)OCCF)cc12)C(=O)O`, 0.01 µM.
Take `CC(C)[C@H](NS(=O)(=O)c1ccc2c(c1)oc1cc(NC(=O)Oc3ccc(F)cc3)ccc12)C(=O)O`: the IC50 in data set [3] turned out to be 0.361 µM.
Regarding `CC(C)[C@@H](NS(=O)(=O)c1ccc2oc3cc(NS(C)(=O)=O)ccc3c2c1)C(=O)O`, in data set [1], the half-life is 2 h. Moreover, the clearance in data set [2] was 141 mL/min/kg. For the same compound, the Vd in data set [4] was 1.9 L/kg. The peak level in data set [5] (Cmax) was 103 ng/mL. In addition, in data set [6], the AUC turned out to be 245 ng·h/mL. In data set [7], this compound registered a bioavailability of 7%.
Consider `CC(C)COC(=O)Nc1ccc2oc3cc(S(=O)(=O)N[C@H](C(=O)O)C(C)C)ccc3c2c1`, for which the 50% inhibitory concentration (IC50) in data set [3] was 0.01 µM.
Turning to `CC(C)[C@@H](NS(=O)(=O)c1ccc2oc3ccccc3c2c1)C(=O)O`, the IC50 in data set [3] turned out to be 2.5 µM.
As for `CC(C)[C@@H](NS(=O)(=O)c1ccc2oc3cc(NC(=O)Oc4ccccc4)ccc3c2c1)C(=O)O`, in data set [3], the half-inhibitory concentration (IC50) was 0.6 µM.
In the case of `Cc1ccc(OC(=O)Nc2ccc3oc4cc(S(=O)(=O)N[C@H](C(=O)O)C(C)C)ccc4c3c2)cc1`, in data set [3], the IC50 came out at 0.1 µM.
Consider `CC(C)[C@H](NS(=O)(=O)c1ccc2c(c1)oc1ccc(NC(=O)NCCc3cccs3)cc12)C(=O)O`, for which the clearance in data set [2] is 211 mL/min/kg. Besides, the 50% inhibitory concentration (IC50) in data set [3] amounted to 0.0011 µM. Besides, the Vd in data set [4] worked out at 15.6 L/kg.
